Test results published in ChEMBL document CHEMBL1201862, “PubChem BioAssay data set” (2004).
Activity calls are given as the source filed them.

What was measured:
Vero [1] = assay: cells; type: functional, cell-based; settings: Chlorocebus sabaeus
Genome polyprotein = Genome polyprotein (dengue virus type 2, UniProt P29990); assay: flavivirus cap methylation enzyme inhibition – biochemical, confirmation dose response, primary screen (AID 588689); type: functional
[2] = target: T1, Mannose-6-phosphate isomerase (Homo sapiens, UniProt P34949); assay: MPI inhibition at elevated mannose 6-phosphate – biochemical, fluorescence intensity, high mannose 6-phosphate, primary screen (AID 1220)
T1 sequence (P34949 whole entry): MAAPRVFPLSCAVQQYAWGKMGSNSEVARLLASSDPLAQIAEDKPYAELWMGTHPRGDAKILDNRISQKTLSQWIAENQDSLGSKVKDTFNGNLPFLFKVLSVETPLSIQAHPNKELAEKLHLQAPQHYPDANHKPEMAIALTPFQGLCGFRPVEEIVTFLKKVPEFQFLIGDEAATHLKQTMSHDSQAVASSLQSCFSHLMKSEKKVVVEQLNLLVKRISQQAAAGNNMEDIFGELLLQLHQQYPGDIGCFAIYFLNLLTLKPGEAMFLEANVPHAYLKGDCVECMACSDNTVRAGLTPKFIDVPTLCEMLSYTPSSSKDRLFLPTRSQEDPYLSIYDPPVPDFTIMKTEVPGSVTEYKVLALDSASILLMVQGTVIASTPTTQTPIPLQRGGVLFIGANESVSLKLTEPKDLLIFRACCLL

Large T antigen = Large T antigen (Simian virus 40, UniProt P03070); type: functional, Betapolyomavirus macacae;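 note: Confirmatory-stage PubChem screen for compounds that inhibit SV40 T antigen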
Chain of Large T antigen (P03070 whole entry): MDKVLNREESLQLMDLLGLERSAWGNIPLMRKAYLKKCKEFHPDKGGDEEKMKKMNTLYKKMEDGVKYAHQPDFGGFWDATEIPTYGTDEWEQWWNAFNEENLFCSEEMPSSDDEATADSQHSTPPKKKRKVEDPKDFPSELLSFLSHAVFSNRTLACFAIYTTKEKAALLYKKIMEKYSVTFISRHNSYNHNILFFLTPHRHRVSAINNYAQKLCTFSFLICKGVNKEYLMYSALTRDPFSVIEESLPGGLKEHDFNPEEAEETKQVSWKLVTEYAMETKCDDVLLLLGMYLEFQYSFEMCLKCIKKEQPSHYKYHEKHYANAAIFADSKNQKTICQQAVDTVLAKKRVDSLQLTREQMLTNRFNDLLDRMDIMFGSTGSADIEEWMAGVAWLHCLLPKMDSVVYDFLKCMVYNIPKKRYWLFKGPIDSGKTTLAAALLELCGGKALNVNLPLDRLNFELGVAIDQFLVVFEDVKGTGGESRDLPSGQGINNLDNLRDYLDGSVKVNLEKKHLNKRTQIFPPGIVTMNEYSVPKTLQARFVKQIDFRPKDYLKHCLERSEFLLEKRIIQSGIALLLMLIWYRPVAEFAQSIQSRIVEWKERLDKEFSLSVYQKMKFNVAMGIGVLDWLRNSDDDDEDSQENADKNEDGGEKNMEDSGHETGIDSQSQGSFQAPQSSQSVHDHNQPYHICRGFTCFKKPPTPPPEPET

[3] = target: Glucose-6-phosphate 1-dehydrogenase (Homo sapiens, UniProt P11413); assay: inhibition of Homo sapiens G6PD, dose series – biochemical, fluorescence, selectivity assay for P. falciparum G6PD inhibitor project, dose response (AID 504792); type: functional
Chain of Glucose-6-phosphate 1-dehydrogenase (P11413 whole entry): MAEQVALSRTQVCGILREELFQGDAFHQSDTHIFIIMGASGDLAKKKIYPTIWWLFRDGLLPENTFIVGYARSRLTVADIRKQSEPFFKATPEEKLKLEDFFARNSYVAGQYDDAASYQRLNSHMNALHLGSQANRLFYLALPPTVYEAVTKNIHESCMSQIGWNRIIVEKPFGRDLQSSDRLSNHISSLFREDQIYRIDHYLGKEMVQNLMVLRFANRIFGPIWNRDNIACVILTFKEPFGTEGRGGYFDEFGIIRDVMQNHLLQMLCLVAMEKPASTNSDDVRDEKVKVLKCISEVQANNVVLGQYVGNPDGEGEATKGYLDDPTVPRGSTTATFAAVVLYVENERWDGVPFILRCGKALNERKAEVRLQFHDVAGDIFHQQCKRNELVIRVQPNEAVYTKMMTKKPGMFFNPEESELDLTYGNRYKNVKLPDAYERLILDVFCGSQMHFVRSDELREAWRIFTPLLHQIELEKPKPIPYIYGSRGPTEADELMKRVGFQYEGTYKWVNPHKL

[4] = target: T2, Rac GTPase-activating protein 1 (Homo sapiens, UniProt Q9H0H5); assay: blockers of MgcRacGAP-driven Rac1 GTP hydrolysis – biochemical, ADP Hunter fluorescence, primary and confirmatory, confirmation (AID 624330); type: functional
T2 sequence (Q9H0H5 whole entry): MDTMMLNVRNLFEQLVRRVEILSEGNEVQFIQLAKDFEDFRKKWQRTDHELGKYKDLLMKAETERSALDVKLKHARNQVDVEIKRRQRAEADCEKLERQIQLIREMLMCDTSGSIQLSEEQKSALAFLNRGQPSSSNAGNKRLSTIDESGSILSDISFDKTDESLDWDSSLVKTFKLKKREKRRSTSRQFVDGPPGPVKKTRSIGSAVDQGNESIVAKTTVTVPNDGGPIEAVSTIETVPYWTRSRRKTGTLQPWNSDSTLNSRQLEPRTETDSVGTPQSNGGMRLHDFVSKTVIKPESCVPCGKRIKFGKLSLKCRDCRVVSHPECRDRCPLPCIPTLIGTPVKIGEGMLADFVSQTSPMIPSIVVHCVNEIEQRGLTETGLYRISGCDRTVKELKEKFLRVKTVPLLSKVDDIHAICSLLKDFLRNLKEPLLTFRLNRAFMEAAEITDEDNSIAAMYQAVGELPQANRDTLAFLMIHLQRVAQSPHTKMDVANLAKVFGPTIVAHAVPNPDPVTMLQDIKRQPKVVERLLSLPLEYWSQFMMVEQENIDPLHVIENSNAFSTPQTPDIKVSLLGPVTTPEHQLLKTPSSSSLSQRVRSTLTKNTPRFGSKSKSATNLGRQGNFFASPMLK

[5] = target: T3, Zinc finger protein mex-5 (Caenorhabditis elegans, UniProt Q9XUB2); assay: potency of MEX-5 RNA-binding blockers – biochemical, C. elegans, fluorescence polarization, dose response (AID 1960)
T3 sequence (Q9XUB2 whole entry): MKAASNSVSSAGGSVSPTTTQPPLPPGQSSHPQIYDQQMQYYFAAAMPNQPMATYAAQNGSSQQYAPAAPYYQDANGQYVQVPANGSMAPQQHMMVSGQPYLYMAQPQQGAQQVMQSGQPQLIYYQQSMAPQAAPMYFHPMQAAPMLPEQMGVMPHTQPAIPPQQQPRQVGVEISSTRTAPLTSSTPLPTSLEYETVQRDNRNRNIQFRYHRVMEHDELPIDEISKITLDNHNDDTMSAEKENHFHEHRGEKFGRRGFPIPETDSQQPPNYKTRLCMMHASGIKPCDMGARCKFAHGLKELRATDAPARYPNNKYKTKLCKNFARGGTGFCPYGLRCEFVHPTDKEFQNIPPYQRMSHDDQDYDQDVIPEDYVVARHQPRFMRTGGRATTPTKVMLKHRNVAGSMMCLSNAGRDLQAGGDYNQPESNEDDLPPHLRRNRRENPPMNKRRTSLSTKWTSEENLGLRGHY

[6] = target: T4, RNA-binding protein pos-1 (Caenorhabditis elegans, UniProt G5EF15); assay: disruptors of C. elegans POS-1 RNA interaction – biochemical, fluorescence polarization, dose response (AID 1964);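 note: purified POS-1 fused to maltose binding protein made in E. coli; potency of compounds blocking POS-1 binding to fluorescent RNA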
T4 sequence (G5EF15 whole entry): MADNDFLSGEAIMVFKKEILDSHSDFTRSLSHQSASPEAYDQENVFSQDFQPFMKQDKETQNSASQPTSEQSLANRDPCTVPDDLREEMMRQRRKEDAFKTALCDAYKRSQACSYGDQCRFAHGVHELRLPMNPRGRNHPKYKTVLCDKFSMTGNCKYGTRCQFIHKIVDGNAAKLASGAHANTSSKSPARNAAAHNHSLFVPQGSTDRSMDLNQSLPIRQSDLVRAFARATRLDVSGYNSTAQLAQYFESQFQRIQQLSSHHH

INS1 = assay: INS-1E survival protection against cytokine death – cell-based, luminescence, retest, dose response (AID 449756); type: functional; settings: Rattus norvegicus, INS1;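 note: cell death triggered by IL-1 beta plus TNF-alpha plus IFN-gamma mixture; protective hits raise ATP signal compared with cytokine alone wells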
[7] = viability of uninfected HEp-2 cells – cell-based, HTS, cytotoxicity control for RSV inhibitor project, dose response (AID 2410); type: functional; settings: human respiratory syncytial virus
[8] = HEK-293T viability loss after treatment – luminescence, T-cell screen hits, cytotoxicity control for TCR NF-kB inhibitor project, dose response (AID 489026); type: functional, cell-based;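 note: cells exposed to compound about 14 hours before the viability readout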
H4 = assay: Inhibitors of Prion Protein 5' UTR mRNA Measured in Cell-Based System Using Plate Reader - 2078-01_Inhibitor_Dose_DryPowder_Activity. [Related pubchem assays (depositor defined):AID488894]; type: functional; settings: Homo sapiens
[9] = target: Dual specificity tyrosine-phosphorylation-regulated kinase 1A (Rattus norvegicus, UniProt Q63470); type: biochemical, Homo sapiens
Ion channel NompC = Ion channel NompC (Danio rerio, UniProt Q7T1G6); assay: Dose response cell-based high-throughput screening assay for agonists of the transient receptor potential channel N1 (TRPN1). [Related pubchem assays (depositor defined):AID1424, AID1448]; type: functional
[10] = target: T5, Voltage-gated N-type calcium channel alpha-1B subunit/Amyloid beta A4 precursor protein-binding family A member 1 (Homo sapiens, UniProt Q00975+Q02410); type: protein assay
T5 sequence (Q00975 whole entry): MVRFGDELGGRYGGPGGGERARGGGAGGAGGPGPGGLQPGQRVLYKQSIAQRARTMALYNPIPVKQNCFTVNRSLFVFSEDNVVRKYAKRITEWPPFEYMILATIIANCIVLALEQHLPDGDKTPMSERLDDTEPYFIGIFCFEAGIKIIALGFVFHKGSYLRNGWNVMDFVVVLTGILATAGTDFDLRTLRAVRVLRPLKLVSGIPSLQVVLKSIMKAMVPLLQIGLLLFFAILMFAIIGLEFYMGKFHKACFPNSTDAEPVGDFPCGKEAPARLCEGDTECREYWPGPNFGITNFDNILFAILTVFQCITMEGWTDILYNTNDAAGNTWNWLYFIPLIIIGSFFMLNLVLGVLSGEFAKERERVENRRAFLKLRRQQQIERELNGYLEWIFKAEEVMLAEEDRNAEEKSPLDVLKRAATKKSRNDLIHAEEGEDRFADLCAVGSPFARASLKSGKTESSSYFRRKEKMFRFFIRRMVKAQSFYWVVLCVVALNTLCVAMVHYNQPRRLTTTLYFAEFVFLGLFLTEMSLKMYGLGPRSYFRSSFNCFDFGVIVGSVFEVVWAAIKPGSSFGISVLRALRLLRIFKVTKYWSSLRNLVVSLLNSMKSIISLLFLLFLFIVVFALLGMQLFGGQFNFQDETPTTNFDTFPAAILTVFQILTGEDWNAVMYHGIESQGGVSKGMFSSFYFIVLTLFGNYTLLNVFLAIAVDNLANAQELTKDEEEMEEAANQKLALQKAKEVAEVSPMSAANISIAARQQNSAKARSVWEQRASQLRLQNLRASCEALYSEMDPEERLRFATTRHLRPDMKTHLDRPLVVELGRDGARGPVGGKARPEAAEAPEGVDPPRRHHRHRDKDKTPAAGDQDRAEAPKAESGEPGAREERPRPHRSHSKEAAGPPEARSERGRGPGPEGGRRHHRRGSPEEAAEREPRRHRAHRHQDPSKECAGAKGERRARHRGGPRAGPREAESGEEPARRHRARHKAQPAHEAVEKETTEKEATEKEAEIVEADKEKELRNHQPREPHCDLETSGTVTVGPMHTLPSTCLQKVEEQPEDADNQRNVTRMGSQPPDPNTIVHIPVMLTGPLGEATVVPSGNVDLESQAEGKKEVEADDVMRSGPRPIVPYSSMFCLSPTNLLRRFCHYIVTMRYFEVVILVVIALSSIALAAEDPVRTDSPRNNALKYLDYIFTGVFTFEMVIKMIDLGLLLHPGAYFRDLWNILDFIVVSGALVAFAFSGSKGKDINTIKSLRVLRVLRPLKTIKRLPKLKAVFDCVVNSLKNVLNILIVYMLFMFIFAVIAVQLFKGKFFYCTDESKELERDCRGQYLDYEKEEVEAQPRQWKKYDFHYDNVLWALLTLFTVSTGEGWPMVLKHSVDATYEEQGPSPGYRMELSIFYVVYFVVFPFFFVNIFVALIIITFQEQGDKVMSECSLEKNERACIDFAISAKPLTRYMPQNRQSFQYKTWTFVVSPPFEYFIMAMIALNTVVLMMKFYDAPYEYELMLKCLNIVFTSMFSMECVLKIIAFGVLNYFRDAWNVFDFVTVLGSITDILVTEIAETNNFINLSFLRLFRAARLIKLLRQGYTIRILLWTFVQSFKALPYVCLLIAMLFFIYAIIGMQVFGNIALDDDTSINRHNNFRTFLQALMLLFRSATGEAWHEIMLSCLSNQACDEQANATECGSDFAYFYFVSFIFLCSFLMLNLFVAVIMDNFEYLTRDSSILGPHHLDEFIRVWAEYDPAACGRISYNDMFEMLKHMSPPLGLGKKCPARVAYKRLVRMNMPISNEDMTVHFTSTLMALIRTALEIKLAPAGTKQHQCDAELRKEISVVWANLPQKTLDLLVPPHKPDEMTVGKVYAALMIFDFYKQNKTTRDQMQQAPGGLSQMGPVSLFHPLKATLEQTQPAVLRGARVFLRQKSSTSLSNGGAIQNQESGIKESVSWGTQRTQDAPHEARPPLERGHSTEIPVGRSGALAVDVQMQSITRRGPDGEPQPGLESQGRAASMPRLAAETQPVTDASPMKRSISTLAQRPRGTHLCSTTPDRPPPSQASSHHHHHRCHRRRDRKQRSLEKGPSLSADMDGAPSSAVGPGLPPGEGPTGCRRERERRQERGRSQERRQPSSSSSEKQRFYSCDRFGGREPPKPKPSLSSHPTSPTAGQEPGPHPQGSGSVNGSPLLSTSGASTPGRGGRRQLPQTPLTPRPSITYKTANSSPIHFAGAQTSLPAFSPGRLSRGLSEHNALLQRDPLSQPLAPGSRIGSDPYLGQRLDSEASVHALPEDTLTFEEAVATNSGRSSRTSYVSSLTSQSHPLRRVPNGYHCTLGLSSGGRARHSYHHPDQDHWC
T5 sequence (Q02410 whole entry): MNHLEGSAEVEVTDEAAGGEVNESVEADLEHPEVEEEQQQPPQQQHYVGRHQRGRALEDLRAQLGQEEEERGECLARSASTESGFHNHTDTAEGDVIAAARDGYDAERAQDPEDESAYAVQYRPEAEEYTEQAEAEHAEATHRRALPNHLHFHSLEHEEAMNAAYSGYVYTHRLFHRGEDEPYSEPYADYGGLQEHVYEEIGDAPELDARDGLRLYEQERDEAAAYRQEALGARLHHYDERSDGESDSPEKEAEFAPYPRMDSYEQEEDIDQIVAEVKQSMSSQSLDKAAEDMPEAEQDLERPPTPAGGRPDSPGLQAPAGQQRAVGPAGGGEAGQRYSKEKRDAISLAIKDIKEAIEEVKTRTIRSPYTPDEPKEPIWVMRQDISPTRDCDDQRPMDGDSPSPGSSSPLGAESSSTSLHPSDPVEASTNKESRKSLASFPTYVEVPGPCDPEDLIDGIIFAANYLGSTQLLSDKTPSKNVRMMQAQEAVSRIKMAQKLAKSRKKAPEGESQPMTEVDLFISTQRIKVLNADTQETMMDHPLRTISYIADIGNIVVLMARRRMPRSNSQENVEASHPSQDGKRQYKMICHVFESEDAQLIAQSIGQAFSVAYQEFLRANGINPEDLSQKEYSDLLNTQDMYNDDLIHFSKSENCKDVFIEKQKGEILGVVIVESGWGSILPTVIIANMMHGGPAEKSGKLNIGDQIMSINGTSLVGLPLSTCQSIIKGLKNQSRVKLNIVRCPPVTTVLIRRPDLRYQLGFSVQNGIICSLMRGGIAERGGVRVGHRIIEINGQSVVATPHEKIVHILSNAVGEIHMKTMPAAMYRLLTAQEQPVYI

Mucolipin-3 = target: T6, Mucolipin-3 (Homo sapiens, UniProt Q8TDD5); assay: Fluorescence counterscreen assay for […] agonists: dose response cell-based high-throughput screening assay to identify agonists of the transient receptor potential channel ML3 (TRPML3). [Related pubchem assays: 1424, 1448 ]; type: functional
T6 sequence (Q8TDD5 whole entry): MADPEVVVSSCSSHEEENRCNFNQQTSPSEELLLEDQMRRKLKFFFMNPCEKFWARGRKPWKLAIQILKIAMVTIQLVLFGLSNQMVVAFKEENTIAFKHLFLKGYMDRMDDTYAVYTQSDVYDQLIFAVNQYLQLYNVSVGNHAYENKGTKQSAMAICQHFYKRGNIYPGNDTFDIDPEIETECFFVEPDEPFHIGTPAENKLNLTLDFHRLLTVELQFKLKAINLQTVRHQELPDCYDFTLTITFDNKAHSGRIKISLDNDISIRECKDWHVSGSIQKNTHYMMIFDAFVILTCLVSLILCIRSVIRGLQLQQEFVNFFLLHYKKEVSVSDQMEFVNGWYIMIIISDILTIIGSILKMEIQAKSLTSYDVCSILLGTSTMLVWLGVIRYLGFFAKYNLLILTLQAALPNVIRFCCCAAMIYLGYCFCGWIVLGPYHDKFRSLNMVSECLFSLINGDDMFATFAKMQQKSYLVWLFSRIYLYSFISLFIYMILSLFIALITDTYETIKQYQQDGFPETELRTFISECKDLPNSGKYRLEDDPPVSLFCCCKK

[11] = target: DNA dC->dU-editing enzyme APOBEC-3A (Homo sapiens, UniProt P31941); assay: A3A deaminase inhibition for selectivity – biochemical, dose response (AID 504722); type: functional
[12] = NIH3T3 cell viability loss – ATP luminescence, mouse fibroblasts, counter-screen, dose response (AID 2010); type: functional, cell-based;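 note: cells exposed to compound for about 90 hours before reading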
[13] = Trypanosoma cruzi growth suppression in host cells – NIH3T3 host cells, beta-gal luminescence, confirmation (AID 2044); type: functional, cell-based;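 note: intracellular parasites grown in NIH/3T3 mouse fibroblasts as host cells; luminescent beta-galactosidase reporter signal from transgenic T. cruzi replicating inside host cells; inhibitors lower the luminescence signal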
[14] = target: T5, Voltage-gated N-type calcium channel alpha-1B subunit/Amyloid beta A4 precursor protein-binding family A member 1; type: protein assay; remark: listed apart in the source
[15] = target: DNA dC->dU-editing enzyme APOBEC-3G (Homo sapiens, UniProt Q9HC16); assay: Dose Response confirmation of small molecule APOBEC3G DNA Deaminase Inhibitors via a fluorescence-based single-stranded DNA deaminase assay. [Related pubchem assays (depositor defined):AID493012, AID493028]; type: functional
[16] = fluconazole-exposed Candida albicans growth modulators – fluorescence, retest, confirmation (AID 2467); type: functional, cell-based
Vero [17] = assay: cells; type: functional; settings: Chlorocebus sabaeus
[18] = NIH-3T3 fibroblast cytotoxicity, dose response, cytotoxicity control, cell-based, fluorescence, Alamar Blue, secondary assay (AID 2327); type: functional;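 note: NIH-3T3 mouse fibroblasts cultured with fluconazole at 8 µg/mL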
[19] = target: T7, Ubiquitin-conjugating enzyme E2 N (Homo sapiens, UniProt P61088); type: functional;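 note: Dose-response confirmation in a TR-FRET assay detecting UBC13-driven polyubiquitin chain formation, inhibition measured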
T7 sequence (P61088 whole entry): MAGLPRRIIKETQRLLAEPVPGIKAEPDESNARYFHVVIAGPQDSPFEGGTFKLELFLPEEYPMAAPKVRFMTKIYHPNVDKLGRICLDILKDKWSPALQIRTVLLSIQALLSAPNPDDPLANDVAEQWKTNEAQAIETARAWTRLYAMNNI

[20] = luciferase reporter signal suppression in cells – H4 neuroglioma cells, luminescence, dose response (AID 1990); type: functional, cell-based
[21] = target: T8, Serine/threonine-protein phosphatase (Candida dubliniensis (strain CD36 / CBS 7987 / NCPF 3949 / NRRLY-17841) (Yeast), UniProt B9W6M3); assay: blockers of CaCl2-induced CDRE-lacZ signaling – S. cerevisiae, luminescence, secondary, dose response (AID 2388); type: functional, cell-based;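 note: yeast reporter cells carrying a calcineurin-responsive lacZ construct stimulated with calcium chloride; luminescent beta-galactosidase reporter signal in whole cells rather than isolated phosphatase activity; potency for inhibition where a drop in reporter signal means calcineurin blockade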
T8 sequence (B9W6M3 whole entry): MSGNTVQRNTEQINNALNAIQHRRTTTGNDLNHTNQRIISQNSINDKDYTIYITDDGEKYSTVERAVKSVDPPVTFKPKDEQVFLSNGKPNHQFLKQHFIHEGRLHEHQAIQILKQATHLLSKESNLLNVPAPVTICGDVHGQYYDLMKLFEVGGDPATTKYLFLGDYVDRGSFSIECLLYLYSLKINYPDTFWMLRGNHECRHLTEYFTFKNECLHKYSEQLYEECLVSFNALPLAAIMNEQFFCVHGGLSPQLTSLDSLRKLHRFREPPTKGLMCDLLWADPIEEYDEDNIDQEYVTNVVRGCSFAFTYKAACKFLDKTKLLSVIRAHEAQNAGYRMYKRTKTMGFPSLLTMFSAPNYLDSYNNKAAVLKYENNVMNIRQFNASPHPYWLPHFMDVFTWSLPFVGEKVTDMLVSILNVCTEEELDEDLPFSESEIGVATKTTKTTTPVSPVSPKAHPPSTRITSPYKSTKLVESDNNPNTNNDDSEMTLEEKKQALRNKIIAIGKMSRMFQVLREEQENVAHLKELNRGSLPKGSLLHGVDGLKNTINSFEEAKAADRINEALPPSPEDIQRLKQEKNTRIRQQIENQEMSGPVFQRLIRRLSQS

[22] = Luminescence Cell-Based Dose Response HTS to Identify Inhibitors of 5'UTR Stem-Loop Driven Prion Protein mRNA Translation in H4 Neuroglioblastoma Cells. [Related pubchem assays: 1827 (Project Summary), 1813 (Primary HTS)]; type: functional
[23] = alpha-synuclein stem-loop luciferase translation blockers – H4 neuroglioma cells, luminescence, confirmation (AID 1988); type: functional, cell-based
[24] = target: ATP-dependent molecular chaperone HSP82 (Candida albicans (strain WO-1) (Yeast), UniProt C4YTQ8); assay: steroid-induced GRE reporter decrease in yeast – S. cerevisiae, luminescence, Hsp90 inhibitor project, dose response (AID 2400); type: functional, cell-based;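 note: beta-galactosidase luminescence from glucocorticoid response element reporter as proxy for Hsp90 function; inhibitor potency where signal loss means Hsp90 inhibition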
Chain of ATP-dependent molecular chaperone HSP82 (C4YTQ8 whole entry): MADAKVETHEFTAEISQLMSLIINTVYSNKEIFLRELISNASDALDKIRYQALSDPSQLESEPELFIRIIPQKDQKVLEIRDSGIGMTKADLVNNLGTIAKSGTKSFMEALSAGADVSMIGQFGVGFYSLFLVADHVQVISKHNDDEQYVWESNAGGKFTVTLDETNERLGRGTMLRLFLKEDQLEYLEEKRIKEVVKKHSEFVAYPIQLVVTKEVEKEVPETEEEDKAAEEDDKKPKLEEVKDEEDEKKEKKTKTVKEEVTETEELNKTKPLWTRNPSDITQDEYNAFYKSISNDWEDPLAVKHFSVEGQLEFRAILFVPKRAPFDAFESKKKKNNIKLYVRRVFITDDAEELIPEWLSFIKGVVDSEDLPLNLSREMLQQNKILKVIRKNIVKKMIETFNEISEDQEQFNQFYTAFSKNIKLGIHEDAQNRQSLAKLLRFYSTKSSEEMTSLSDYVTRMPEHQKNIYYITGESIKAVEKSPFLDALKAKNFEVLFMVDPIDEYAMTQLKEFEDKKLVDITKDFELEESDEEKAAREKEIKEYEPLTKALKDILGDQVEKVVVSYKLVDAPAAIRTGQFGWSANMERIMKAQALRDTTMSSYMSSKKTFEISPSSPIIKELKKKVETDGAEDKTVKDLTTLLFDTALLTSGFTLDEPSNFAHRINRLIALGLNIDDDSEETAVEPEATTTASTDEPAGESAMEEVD

O=c1oc(C2(O)CCCCC2)cc2ccc(-c3ccc4[nH]ccc4c3)cc12
IC50 (Vero [1]): 1.11 µM (active)

Cc1c(N=C2C=C(Br)C(=O)C(Br)=C2)c(=O)n(-c2ccccc2)n1C
IC50 (Genome polyprotein): 82.5 µM (active)
IC50 [2]: > 50 µM (not active)
IC50 (Large T antigen): 27 µM (active)
IC50 [3]: 58.4 µM (inactive)
IC50 [4]: 52.2 µM (active)

O=S(=O)(Nc1cc(Sc2cccc3cccnc23)c(O)c2ccccc12)c1ccc(F)cc1
EC50 [5]: 40.1 µM (active)
EC50 [6]: > 300 µM (not active)
AC50 (INS1): 1.21 µM (active)
IC50 [3]: > 80 µM (inactive)

O=C(Cc1c[nH]c2ccccc12)Nc1nnc(C2CC2)s1
IC50 (Vero [1]): 16.6 µM (active)
IC50 (cells): 39.1 µM (active)
CC50 [7]: 21.6 µM (active)

C=CCn1c(SCc2c(C)noc2C)nc2ccccc2c1=O
IC50 [8]: > 80 µM (inactive)
AC50 (H4): 0.574 µM (active)

c1cncc(-c2csc(-c3cccnc3)n2)c1
AC50 [9]: 0.676 µM (active)

Cc1cc(C)c2c(=O)n(CC(=O)Nc3cccc(Cl)c3C)sc2n1
EC50 (Ion channel NompC): > 29.9 µM (inactive)
IC50 [10]: 17.8 µM (active)
EC50 (Mucolipin-3): > 29.9 µM (not active)
IC50 [11]: > 100 µM (inactive)
EC50 [12]: 7.73 µM (active)
IC50 (Large T antigen): 9.03 µM (active)
EC50 [13]: 1.65 µM (active)
IC50 [3]: 46.5 µM (inactive)
IC50 [14]: > 50 µM (inactive)
IC50 [15]: 6.83 µM (active)

CCCOc1ccc(C(=O)NNC(=S)NC(C)=O)cc1
EC50 [16]: 0.372 µM (active)
CC50 (Vero [17]): > 25 µM (active)
EC50 [18]: > 160 µM (inactive)
IC50 [19]: > 20 µM (inactive)
EC50 [20]: 14.2 µM (active)
EC50 [21]: > 180 µM (inactive)
IC50 (Vero [1]): 23.6 µM (active)
EC50 [22]: 14.2 µM (active)
EC50 [23]: 9.77 µM (active)
EC50 [24]: > 160 µM (inactive)

c1cncc(-c2ccc3[nH]ccc3c2)c1
AC50 [9]: 6.97 µM (active)

O=C(Nc1nnc(SCc2ccc(Cl)cc2)s1)c1cnccn1
EC50 [16]: 0.57 µM (active)
EC50 [18]: > 160 µM (inactive)
EC50 [21]: > 180 µM (inactive)
EC50 [24]: 24.4 µM (active)
